# From patent US20080318792A1, “Extension of pollination period” (priority 2007, published 2008)
# Structures can show the parent of a compound that is named as a salt.
# System: Hughes 1883 hybrid corn seed
# Assay: Soil germination/emergence of corn seed treated with different forms of ABA in slurry
# Type: in vivo
# Settings: 25 g/cwt as free acid
# Method: Three forms of ABA were evaluated in this experiment 1) free acid, 2) ammonium salt, and 3) sodium salt. The cation is referred to as the “counter-ion” below. […] The treatments were made up in 3 ml samples of experimental aqueous seed treatment slurry. All of the seed treatment slurry samples contained CF-Clear film-forming agent and Colorcoat Red (Becker Underwood), each at 1 oz/cwt, and 0.167 oz/cwt Maxim XL fungicide (Syngenta). The slurry application volume was 20 oz/cwt (cwt=100 lbs of seed).
# One hundred gram samples of Hughes 1883 hybrid corn seed were treated with the experimental slurries using a Hege 11 seed treater with a six-inch bowl.
# The seed was planted in plastic boxes containing 1 kg of typical agricultural silt loam. Fifty seeds were planted 3 cm deep in each plastic box, and the soil in the box was adjusted to 21% soil moisture (wet-weight basis). Two replications of the experiment were incubated under constant light in a 25° C. chamber and two replications incubated under constant light in an 18° C. chamber. The boxes were watered up to the correct weight daily, and checked for emergence. Daily counts of seedlings were continued until emergence ceased. The final count of emerged seedlings was expressed as a percentage of the 50 seeds planted (GERM).
# The daily counts were converted to proportions of the final germination of the box, and a Gompertz curve was fitted to the data from each box using SAS Proc NLIN. From the parameters of the model, median germination time (T50) and quartile range (QR) were estimated for each box. Analysis of variance was performed and means calculated for each of the three responses (GERM, T50, QR).
Compound,Final emergence (soil 18° C.) [%],QR (soil 18° C.) [days],T50 (soil 18° C.) [days],Final emergence (soil 25° C.) [%],QR (soil 25° C.) [days],T50 (soil 25° C.) [days]
CC1=CC(=O)CC(C)(C)[C@@]1(O)/C=C/C(C)=C\C(=O)O [ABA ammonium salt],91,3.52,11.2,91,1.34,7.4
CC1=CC(=O)CC(C)(C)[C@@]1(O)/C=C/C(C)=C\C(=O)[O-].[Na+] [ABA sodium salt],92,3.36,10.9,92,1.31,7.1
